# Experimental data reported in patent publication US20090240046A1, “CARBOXYLATED GLUCOSAMINE COMPOUNDS FOR INHIBITING THE ACTIVATION AND EXPRESSION OF MATRIX METALLOPROTEINASE-9 IN HUMAN FIBROSARCOMA CELLS AND MATRIX METALLOPROTEINASE-9 INHIBITORS CONTAINING THE SAME” (priority 2006, published 2009).
# How the values were obtained:
# Type in all cases: cell-based, human
# [1] = tested on: MMP-9; test: Gelatin zymography of MMP-9 gelatinolytic activity in conditioned medium of PMA-stimulated HT1080 cells; details: 500 μg/mL CGlc, HT1080 cells stimulated with PMA 10 ng/mL
# Experimental: MMP-9 activity in HT1080 cells was assayed by gelatin zymography as described previously. For this, approximately 2×10^5 cells/mL HT1080 cells in serum free DMEM medium were seeded in 24-well plates and pre-treated with different concentrations of CGlc for 1 h. MMP-9 expression was stimulated by treatment of PMA (10 ng/mL) and cells were cultured for 48 h. Cell conditioned medium was subjected to substrate gel electrophoresis. Similar amount of protein containing conditioned media were applied without reduction to a 10% (w/v) polyacrylamide gel impregnated with 1 mg/mL gelatin. After electrophoresis, gel was washed in 50 mM Tris-HCl (pH 7.5) containing 2.5% Triton X-100 at room temperature and incubated overnight at 37° C. in zymography developing buffer containing 10 mM CaCI2, 50 mM Tris-HCl, and 150 mM NaCl. The gel was then stained with a […]. In this assay clear zones against the blue background indicate the presence of gelatinolytic activity.
# The image of the gel was recorded using Fujifilm Image Reader LAS-3000 software in Science Image System, LAS 3000 (Fujifilm Life Science, Tokyo, Japan). The gelatinolytic activities were quantified using Multi Gauge V3.0 software.
# To analyze the inhibition of MMP-9 mediated gelatinolytic activity in conditioned medium stimulated with PMA, we utilized human fibrosarcoma cell line, HT1080. […]
# [2] = tested on: HT1080 cells; test: MTT cell viability (cytotoxicity) assay; details: even at 1 mg/mL, 24 h, in the presence and absence of FBS
# Experimental: Equal number of HT1080 cells (4000 cells per well) cultured in 96-well plates with serum and serum free media were treated with various concentrations of CGlc for 24 h. Cell viability was then evaluated with the 3-(4,5-dimethyl[…])-2,5-diphenyltetrazolium bromide (MTT) spectrophotometrically (GENios® microplate reader, Tecan Austria GmbH, Austria) which measures conversion of tetrazolium salt in to blue formazan by viable cells.
# [3] = tested on: MMP-9; test: Fluorescence conjugated gelatin digestion assay on conditioned medium of PMA-stimulated HT1080 cells
# Experimental: HT1080 cells grown in 24-well plates were treated with different concentrations of CGlc and conditioned media were collected by centrifugation at 13 000×g following PMA (10 ng/mL) treatment. Enzyme activities of conditioned media in 50 mmol/l Tris-HCl buffer (pH 7.5), 0.15 mol/l NaCl, 10 mmol/l CaCl2, 0.02% NaN3 (TNC buffer) containing 0.05% Brij 35 were determined using fluorescence conjugated gelatin peptide (Collagen Technology Corporation, Tokyo, Japan) as the substrate.
# Fluoropeptides were incubated with conditioned media at 37° C. for 20 h, and the reaction was terminated by addition of 3% acetic acid. Fluorescence intensity was measured at 495 nm (excitation) and 520 nm (emission) with a GENios® fluorescence microplate reader (Tecan Austria GmbH, Austria).
# The MMP-9 inhibitory effect of CGlC on MMP-9 activity stimulated by PMA in HT1080 cells was further confirmed using more sensitive fluorescence conjugated gelatin digestion assay which use fluorescence conjugated gelatin peptides as the substrate for MMP-9. The amount of active gelatinases (MMP-9/-2) present in CGIc treated stimulated conditioned medium obtained from incubation of HT1080 cells was assesssed from the resulting fluorescence activity. […] Therefore it can be presumed that difference in fluorescence intensities were mainly due to activity of MMP-9. […]
# [4] = tested on: MMP-9 promoter; test: MMP-9 promoter luciferase reporter assay in transfected HT1080 cells; details: PMA-stimulated transfected HT1080 cells
# Experimental: (§1) HT1080 cells cultured in 10 cm culture dishes were transiently transfected with MMP-9 promoter containing pGL3 luciferase reporter vector (Promega, Madison, Wis.) or AP-1 binding site containing luciferase reporter plasmid (Colontech, Palo Alto, […]) by Lipofectamine™ 2000™ reagent (Invitrogen). Beta-galactosidase expression vector co-transfected with the reporter vector to serve as an internal control of transfection efficiency. Transfected cells sub-cultured in 24-well plates were treated with different concentrations of CGlc. Following stimulation with PMA cells were cultured for 24 h. Cells were washed once with cold PBS and lysed with 200 μl/well lysis buffer (25 mM Tri-HCl, pH 8.0, containing 2 mM DDT and 1% Triton-X 100). Aliquots of cell lysate and luciferase substrate (Promega) were mixed in equal amounts in a 96-well plate and luminescence intensity was measured with a luminescence microplate reader (Tecan Austria GmbH, Austria). Beta-galactosidase activity was measured with ONPG buffer. The level of reporter gene expression was determined as a ratio, compared with cells stimulated by PMA (10 ng/mL) alone and represented as relative luciferase activity.
# (§2) Transfection efficiency was determined by X-Gal staining method. Briefly, transfected cells were fixed with 0.5% glutaraldehyde and stained with X-Gal solution containing 20 mM K3Fe(CN)6, K4Fe(CN)6 and 1 mM MgCl2. […]
# [5] = tested on: AP-1; test: AP-1 binding site luciferase reporter assay in transfected HT1080 cells; details: 500 μg/mL CGlc, PMA-stimulated transfected HT1080 cells
# Experimental: as §1, §2
substance,measurement,setting,value
Carboxylated glucosamine [CGlc],inhibition of MMP-9 lead gelatinolytic activity,[1],approximately 60%
same,toxicity on HT1080 cells (MTT viability),[2],did not show any toxicity
same,reduction of fluorescence intensity,[3]; 100 μg/mL CGlc,about 50%
same,decrease of relative fluorescence activity,[3]; 500 μg/mL CGlc,up to 66%
same,inhibition of MMP-9-luciferase reporter gene activity,[4]; 100 μg/mL CGlc,Approximately 50%
same,inhibition of MMP-9-luciferase reporter gene activity,[4]; 500 μg/mL CGlc,approximately 3 fold
same,suppression of AP-1 reporter activity,[5],2-3 fold
